From EP2255814A1, “AGENT FOR INCREASING THE QUANTITY OF HYALURONIC ACID” (Nagase ChemteX Corporation, priority 2008, dated 2009) come the findings set out here.

For experiment [1], the system named is Normal human dermal fibroblasts (NHDF(AD)). The experiment is described as follows: Hyaluronan production promoting effect in fibroblasts (ELISA of culture supernatant). The following applies: phospholipid liposome at 100 µg/mL, 24 hours. The experiment is classed as cell-based. The procedure:
Normal human dermal fibroblasts (NHDF(AD); Kurabo Industries, Ltd.) were seeded at 2×10^5/well in 24-well plates. After 24-hour preculture, the culture media were removed and replaced with culture media each containing a different phospholipid liposome at 100 µg/mL, i.e. , the PI-PS containing liposome obtained in Preparation Example 2, the PI liposome obtained in Preparation Example 3, or the PS liposome obtained in Preparation Example 4. The culture was maintained for 24 hours. The culture supernatant was collected and hyaluronan therein was quantified by the ELISA method.
A hyaluronan binding protein (HABP; SEIKAGAKU CORPORATION) was added at 2 µg/mL to 96-well plates, which were then allowed to stand at 4°C for 24 hours. After this, the wells were washed. Blocking was performed at 4°C for 24 hours using Block Ace (Dainippon Sumitomo Pharma Co., Ltd.). After the wells were washed, a hyaluronan standard (Wako Pure Chemical Industries, Ltd.) or the culture supernatant was added to the wells and 1-hour incubation was performed at 37°C. After the wells were washed, biotinylated HABP (SEIKAGAKU CORPORATION) was added to the wells and 2-hour incubation was performed at 37°C. […] After the reaction at 37°C for 30 minutes, the absorbance at 405 nm was measured.

The test system of another experiment is hyaluronan synthase HAS2. The experiment is described as follows: Augmentation effect on mRNA expression of hyaluronan synthase HAS2 (semi-quantitative RT-PCR). The experiment is classed as cell-based. Particulars: human fibroblast NHDF(AD), phospholipid liposome in culture medium, 24 hours; concentrations only in Fig. 1. The procedure:
Normal human fibroblasts (NHDF(AD); Kurabo Industries Ltd.) were seeded at 8×10^5/well in 6-well plates. After 24-hour preculture, the culture media were removed and replaced with culture media each containing a different phospholipid liposome prepared in Preparation Examples 2 to 4. The culture was maintained for 24 hours. Then, after removal of the culture medium and addition of 1 mL of ISOGEN (NIPPON GENE), RNA was extracted from the cells according to the usual method described in the attachment of ISOGEN.
cDNA preparation was performed using SuperScriptIII First-Strand Synthesis System for RT-PCR (Invitrogen) according to the operating procedures described in the attachment of the kit. RT-PCR was performed using primers below. HAS2 (Forward): […] (SEQ ID NO: 1) HAS2 (Reverse): […] (SEQ ID NO: 2) β-actin (Forward): […] (SEQ ID NO: 3) β-actin (Reverse): […] (SEQ ID NO: 4)
Using each of the obtained cDNA and the HAS2 primer set, PCR was performed for 29 cycles of 94°C for 1 min, 58°C for 1 min, and 72°C for 1 min. […] After completion of PCR, the PCR product was analyzed by electrophoresis in 1.5% agarose gel. Each band strength was determined by densitometry and the degree of increase in HAS2 mRNA expression was semi-quantitatively assessed by comparison of the HAS2/β-actin ratios between samples and the control. […]

In the case of L-α-phosphatidylserine [PS], in experiment [1], the production of hyaluronan entry is given as “significantly increased”. Besides, the “mRNA expression of HAS2 (HAS2/β-actin ratio relative to control cells)” value in the experiment on hyaluronan synthase HAS2 is reported as “significantly increased”.

With L-α-phosphatidylinositol Na [PI], the production of hyaluronan entry in experiment [1] is “significantly increased”. Further, in the experiment with hyaluronan synthase HAS2, the “mRNA expression of HAS2 (HAS2/β-actin ratio relative to control cells)” value is “significantly increased”.
